The text below walks through data of EP0409499A2, “Pharmaceutical compositions” (BRITISH TECHNOLOGY GROUP LIMITED, priority 1989, dated 1991).

Data set [1] concerns growing rats. The data set can be described thus: Cardioprotective effect against the toxicity of doxorubicin (heart rate and cardiac output in rats). The data set is classed as in vivo. The following applies: relative to saline + saline control. The procedure:
The following compounds were selected to be tested for their cardioprotetive effect against the toxicity of doxorubicin. The compounds tested were: 1,3-bis(3,5-dioxopiperazin-1-yl)-propane 1,2-bis(2-methyl-3,5-dioxopiperazin-1-yl)-ethane 1,2-bis(3,5-dioxopiperazin-1-yl)-butane.
Groups of growing rats were injected intra-peritoneally (i.p.) with 100 mg/kg or 400 mg/kg body weight of the compound. After 1 hour, doxorubicin solution was injected intravenously (i.v.) at a concentration of 4 mg/kg body weight. Other groups of rats were injected with saline (i.p.) followed after 1 hour by saline (i.v.) or with saline (i.p.) followed after 1 hour by doxorubicin solution (i.v.) as controls. The cardiotoxicity of doxorubicin and the protection supplied by the compounds was assessed by measuring the heart rate and cardiac output relative to the saline + saline control. Cardiac output was measured by injecting ^99mTc into the heart and measuring the rate at which the isotope was cleared from the heart. Heart rate was measured in the standard manner.
The results are shown in the Table below from which it will be seen that each of the compounds results in an improvement in cardiac output and heart rate as compared with the depressed values which occur when only doxorubicin is used. TABLE

For data set [2] the following is noted: result in words, Herman et al, Res. Commun. Chem. Pathol. Pharmacol. 1985, 48, 39; cited from earlier work.
The conditions of data set [3]: result in words, Herman et al, Adv. Pharmacol. Chemother. 1982, 19, 249; cited from earlier work.
The mark [4] stands for this setting: compound 100 mg/kg i.p., 1 hour later doxorubicin 4 mg/kg i.v.
[5] abbreviates: compound 100 mg/kg i.p., 1 hour later doxorubicin 4 mg/kg i.v., 99mTc clearance from the heart.
[6] abbreviates: saline i.p., 1 hour later doxorubicin 4 mg/kg i.v. alone.

As for `CC1C(=O)NC(=O)CN1CCN1CC(=O)NC(=O)C1C` (stereo not drawn) [1,2-bis(2-methyl-3,5-dioxopiperazin-1-yl)-ethane], the “Relative Heart Rate” value in data set [1] (setting [4]) came out at 0.99 ± 0.03. Further, the “Relative Cardiac Output” value in data set [1] (setting [5]) worked out at 0.62 ± 0.05.
As to `CCC(CN1CC(=O)NC(=O)C1)N1CC(=O)NC(=O)C1` (racemic) [1,2-bis(3,5-dioxopiperazin-1-yl)-butane, dl-1,2-bis(3,5-dioxopiperazin-1-yl)-butane], the “Relative Heart Rate” value in data set [1] (setting [4]) was determined as 0.98 ± 0.03; in data set [1] (compound 400 mg/kg i.p., 1 hour later doxorubicin 4 mg/kg i.v.), 0.92 ± 0.04. Further, the “Relative Cardiac Output” value in data set [1] (setting [5]) amounted to 0.70 ± 0.05; in data set [1] (compound 400 mg/kg i.p., 1 hour later doxorubicin 4 mg/kg i.v., 99mTc clearance from the heart), 0.67 ± 0.05.
With `O=C1CN(CCCN2CC(=O)NC(=O)C2)CC(=O)N1` [1,3-bis(3,5-dioxopiperazin-1-yl)-propane], in data set [1] (setting [4]), the “Relative Heart Rate” value amounted to 0.81 ± 0.12. Besides, the “Relative Cardiac Output” value in data set [1] (setting [5]) amounted to 0.56 ± 0.06.
`O=C1CN(CCN2CC(=O)N(CN3CCOCC3)C(=O)C2)CC(=O)N1CN1CCOCC1` [bimolane]: the “protective effect against acute daunorubicin toxicity” value in data set [2] was “give protection against the lethal effects of daunorubicin”.
As for `CC(CN1CC(=O)NC(=O)C1)N1CC(=O)NC(=O)C1` (stereo not drawn) [ICRF 159], the “reducing high dose daunorubicin toxicity versus doxorubicin toxicity” value in data set [3] is reported as “consistently more effective in reducing high dose daunorubicin toxicity than doxorubicin toxicity”.
With `COc1cccc2c1C(=O)c1c(O)c3c(c(O)c1C2=O)C[C@@](O)(C(=O)CO)C[C@@H]3O[C@H]1C[C@H](N)[C@H](O)[C@H](C)O1` [doxorubicin, reference compound], in data set [1] (setting [6]), the “Relative Cardiac Output” value is on record as 0.41 ± 0.04 and the “Relative Heart Rate” value was found to be 0.65 ± 0.19.
